Legend:
Assay type in all cases: in vivo
[1] = tested on: mice (lung, kidney, liver and other organs); assay: Toxicity of long-term, high-dose nebulized delivery; conditions: 25 mg/kg or 250 mg/kg aerosolized daily up to 30 days
Experimental: PB141 was delivered to mice by nebulization at doses of 25 or 250 mg/kg for up to 30 days. (A) Lungs were excised, sectioned, and examined histologically for evidence of inflammation or injury. (B) Potential kidney and liver injury were assessed by serum levels of creatinine, AST, and ALT. […] Acute lung injury was induced in mice by intratracheal administration of LPS. Thirty min later PBS or varying concentrations of PB141 were delivered into cage air by nebulization. Following sacrifice, nuclear proteins were isolated from lungs and used to determine DNA-binding activity of the p65 subunit of the pro-inflammatory transcription factor NF-κB.
PB141 (25 mg/kg or 250 mg/kg) was aerosolized to mice daily for up to 30 consecutive days. The standard dose used in efficacy studies is 25 mg/kg for 1-10 days. At the conclusion of each experiment blood was collected and the lungs were excised and examined histopathologically for evidence of injury or toxicity. Serum levels of creatinine and aspartate (AST) and alanine (ALT) aminotransferases were measured using enzyme-linked immunosorbent assay (ELISA) kits (R&D Systems, Minneapolis, Minn.) according to the manufacturer's instructions. At the end of 30 days' exposure, other organs were also excised and similarly examined (data not shown).

[2] = tested on: LPS-induced acute lung injury in mice; assay: LPS-induced acute lung injury model; conditions: 25 mg/kg nebulized 30 min after LPS
Experimental: Induction of ALI by intratracheal injection of LPS (50 μg) was followed 30 min later by nebulization of PB141 (25 mg/kg) or vehicle (saline) and delivery to cage air via a micropump nebulizer. After a further 5.5 h, BAL fluid, plasma, and lung samples were obtained. (A) Total cell and (B) neutrophil number in BAL fluid; myeloperoxidase activity in (C) lung tissue and (D) BAL fluid; (E) microscopic examination following staining of BAL fluid; (F) H2O2 production; (G) nitrate concentration, and (H) malonyldialdehyde/protein ratio in lung. Plasma levels of (I) MIP-2, (J) IL-6, (K) TNF-α, and (L) KC. Data are representative of one of two independent experiments with n=5-8 mice per group; *** p<0.001.
Induction of ALI by intratracheal injection of LPS (50 μg) was followed 30 min later by nebulization of PB141 (25 mg/kg) or vehicle (saline) and delivery to cage air via a micropump nebulizer. After a further 5.5 h, BAL fluid and lung samples were obtained. (A) Protein concentration in BAL fluid. (B) Ratio of lung wet:dry weight. (C) Histological examination of the lung following H&E staining. Data are representative of one of two independent experiments with n=5-8 mice per group; *** p<0.001.
Induction of ALI by intratracheal injection of LPS (50 μg) was followed 30 min later by nebulization of PB141 (25 mg/kg) or vehicle (saline) and delivery to cage air via a micropump nebulizer. After another 5.5 h lungs were excised and DNA-binding activity of the transcription factor Nrf2 was determined. Data is representative of one of two independent experiments with n=4-6 mice per group; *** p<0.001.
Acute lung injury was induced by intratracheal injection of endotoxin (lipopolysaccharide; LPS) prepared from Escherichia coli 0111:B6 (Sigma-Aldrich; St. Louis, Mo.) into anesthetized mice. In other experiments, systemic sepsis was induced by intraperitoneal injection of endotoxin. Thirty minutes later PB141 (25 mg/kg) or vehicle (saline) was delivered to mice for 30 minutes via a micropump nebulizer (Buxco Research Systems, Wilmington, N.C.) fitted at the chamber inlet. Extent of lung injury after 5.5 h and systemic sepsis after 12 h were assessed by measuring lung tissue myeloperoxidase activity, polymorphonuclear neutrophil (PMN) count in bronchoalveolar lavage fluid, lung vascular permeability, pulmonary edema, and cytokine generation. Lung histology sections were assessed microscopically for evidence of inflammation and injury following hematoxylin and eosin (H&E) staining.

[3] = tested on: alveolar macrophages; assay: Gene expression in alveolar macrophages isolated from BAL fluid of treated mice (real-time PCR); conditions: mice given LPS then 25 mg/kg nebulized
Experimental: Induction of ALI by intratracheal injection of LPS (50 μg) was followed 30 min later by nebulization of PB141 (25 mg/kg) or vehicle (saline) and delivery to cage air via a micropump nebulizer. After another 5.5 h BAL fluid was obtained. Alveolar macrophages were isolated from the BAL fluid and plated in DMEM+10% FBS. After 1 h, RNA was isolated and expression of the indicated genes was determined using real-time PCR; results were normalized to values for the housekeeping genes glyceraldehyde-3-phosphate dehydrogenase (GAPDH) and […]. Data are representative of one of two independent experiments with n=6-8 mice per group; **P<0.01; ***P<0.001.
(§1) For additional in vitro studies, after the treatment described above alveolar macrophages were isolated from the BAL fluid and plated in DMEM+10% FBS. After 1 h, RNA was isolated and expression of the different genes was determined using real-time PCR; results were normalized to values for the housekeeping genes glyceraldehyde-3-phosphate dehydrogenase (GAPDH) and […]. […] In other experiments, PMNs were isolated from peripheral blood of endotoxin-treated mice by hetastarch exchange transfusion. PMN adhesion was assessed with the Cytoselect Leukocyte-Endothelium Adhesion Assay kit (CBA-210; Cell Biolabs) and transendothelial PMN migration was determined with the Cytoselect Leukocyte Transmigration Assay kit (CBA-212; Cell Biolabs).

[4] = tested on: PMNs; assay: PMN adhesion and transendothelial migration, cells of endotoxin-treated mice; conditions: PMNs from peripheral blood of endotoxin-treated mice
Experimental: as §1

CC(=O)N[C@@H](CSC(CC(=O)CC(SC[C@H](NC(C)=O)C(=O)O)c1cnccn1)c1cnccn1)C(=O)O (stereo partly shown) [PB141]
Injury or toxicity (lung histopathology, serum creatinine, AST, ALT, other organs) [1]: No evidence of injury or toxicity | Cytokine generation (plasma MIP-2, IL-6, TNF-α, KC) ([2]; 5.5 h): reduced | Edema (lung wet:dry weight) ([2]; 5.5 h): reduced | Lung Nrf2 DNA-binding activity after LPS ([2]; 5.5 h): reverses the LPS-induced decrease | Lung myeloperoxidase activity ([2]; 5.5 h): decreased | Oxidant stress (H2O2, nitrate, malonyldialdehyde) ([2]; 5.5 h): reduced | PMN count in BAL fluid ([2]; 5.5 h): decreased | PMN infiltration into the alveolar space ([2]; 5.5 h): effectively prevented | Lung injury seen histologically ([2]; H&E): Decreased lung injury | Transcription of antioxidant genes in alveolar macrophages [3]: increased | Transcription of inflammatory genes in alveolar macrophages [3]: decreased | PMN adhesion [4]: decreased | Transendothelial PMN migration [4]: decreased

From patent US9862690B2, “Treatment of pulmonary and other conditions” (University of Pittsburgh—of the Commonwealth System of …, priority 2013, dated 2018)
